Experimental data taken from US6586596B2, “Acetylcholine enhancers” (priority 1998, dated 2003).

Assays:
5-HT3 receptor = biological target: T1, 5-HT3 receptor (Mus musculus, UniProt P23979); assay: serotonin 5-HT3 binding assay (NovaScreen), NIE-115 cells; details: 20 mM HEPES pH 7.4, 150 mM NaCl, 25° C., 60 minutes
T1 construct: The receptor source was NIE-115 cells; host or cells: NIE-115 cells
T1 sequence (P23979 24-489): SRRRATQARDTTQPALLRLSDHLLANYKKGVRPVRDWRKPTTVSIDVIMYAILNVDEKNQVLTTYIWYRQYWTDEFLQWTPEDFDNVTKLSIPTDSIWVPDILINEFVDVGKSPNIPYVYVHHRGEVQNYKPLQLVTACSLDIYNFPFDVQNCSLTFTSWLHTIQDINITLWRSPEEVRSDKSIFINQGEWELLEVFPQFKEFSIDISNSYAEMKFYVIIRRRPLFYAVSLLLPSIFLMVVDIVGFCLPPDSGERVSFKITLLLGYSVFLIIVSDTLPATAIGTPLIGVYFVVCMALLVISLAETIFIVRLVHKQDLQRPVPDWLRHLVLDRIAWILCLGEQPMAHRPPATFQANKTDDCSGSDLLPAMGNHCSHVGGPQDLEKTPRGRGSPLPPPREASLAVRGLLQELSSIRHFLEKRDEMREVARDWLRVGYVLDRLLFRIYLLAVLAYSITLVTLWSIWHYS
Protocol: Binding affinity of a variety of compounds, including Cm.A, for the 5-HT3 receptor was investigated using a commercially available serotonin 5-HT3 binding assay (NovaScreen, Hanover, Md.). The receptor source was NIE-115 cells (See Lunnis, S. C. R. and Kilparick, G. J., 189: Evr. Jrnl. Pharmacol. 223 (1990); and Hoyer, D. and Heijt, H. C., 33 Mol. Pharmacol., 303 (1988)). The reference compound utilized was “MDL 72222,” a 5-HT3 receptor antagonist. Reactions were carried out in 20 mM HEPES (pH 7.4) containing 150 mM NaCl at 25° C. for 60 minutes. The reaction was terminated by rapid vacuum filtration onto glass fiber filters. Radioactivity trapped onto the filters was determined and compared with the control values.

BF-lesioned rats = assay: Water maze, BF lesion-induced deficit in spatial learning; details: oral; Cm.A 0.3, 1.0 and 3.0 mg/kg/day, THA 1.0 mg/kg/day, E2020 0.3 and 1.0 mg/kg/day
Protocol: For each training trial, the rat was placed in the water (22° C.) such that the animal faced the wall of a circular pool (150 cm in diameter, 45 cm in height), and started at one of five starting points (selected randornly). In each trial, the latency period to escape onto the hidden platform (fixed in the middle of one quadrant, 2 cm below the surface of water) was recorded. These procedures were repeated once or twice a day during the experimental period.

[1] = biological target: T2, peripheral 5-HT3 receptor (Rattus norvegicus, UniProt P35563); assay: 5-HT-evoked von Bezold-Jarish Effect (B.J.E.) in anesthetized rats; type: in vivo; details: Cm.A 3 to 10 mg/kg; for inhibition of 5-HT-evoked B.J.E. (reflex bradycardia): i.v. pretreatment, E2020 0.1~1 mg/kg, 5-HT 20 μg/kg i.v.; for blood pressure, heart rate and other signs: i.v., THA 10 mg/kg, E2020 higher than 1 mg/kg, data not shown
T2 construct: from tissue; host or cells: whole anesthetized rat (peripheral receptors)
T2 sequence (P35563 24-483): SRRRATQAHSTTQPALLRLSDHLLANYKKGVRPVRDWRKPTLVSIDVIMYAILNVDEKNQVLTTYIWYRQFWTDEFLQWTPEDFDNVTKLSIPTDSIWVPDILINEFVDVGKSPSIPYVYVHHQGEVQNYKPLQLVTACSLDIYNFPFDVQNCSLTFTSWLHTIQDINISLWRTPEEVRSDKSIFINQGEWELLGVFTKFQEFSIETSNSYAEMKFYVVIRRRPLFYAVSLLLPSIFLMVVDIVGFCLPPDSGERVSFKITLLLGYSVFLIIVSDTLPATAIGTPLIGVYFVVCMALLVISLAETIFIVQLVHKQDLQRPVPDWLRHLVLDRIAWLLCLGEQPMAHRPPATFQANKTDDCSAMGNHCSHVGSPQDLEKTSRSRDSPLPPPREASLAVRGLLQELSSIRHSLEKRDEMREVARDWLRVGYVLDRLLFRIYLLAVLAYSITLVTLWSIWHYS
Protocol: A bolus i.v. injection of serotonin (5-HT) (20 μg/kg) caused reflex bradycardia transiently (von Bezold—Jarish Effect: B.J.E.) via activation of peripheral 5-HT3 receptor in anesthetized rats.

[2] = test system: extracellular levels of ACh in striatum; assay: ACh release in striatum, microdialysis in freely moving rats; type: in vivo
Protocol: ACh content in perfusate obtained from striatum (Bregma, A: 0.2 mm, L: 3.0 mm, H: 4.0 mm) of brain were continuously detected by means of HPLC and ECD through the microdialysis system using freely moving rats. See Messamore, E., et al, 32 Neuropharmacol. […] After an equilibration period of more than 2 hours, five fractions were allowed to obtain basal ACh content. Compounds were injected i.p., and thereafter, a microdialytic analysis was conducted for 3 hours.

Cynomologous monkeys [3] = assay: Hepatotoxic analysis, two-week oral study; type: in vivo; details: monkey, in vivo, po, 5 mg/kg/day
Excerpt: The following parameters were examined: body weight, clinical signs, food consumption, blood biochemistry (GOT, GPT, ALP, LDH, γ-GTP, ChE, Bil, T.Pro, Alb, A/G ratio, T.Cho, NEFA, TG). After the administration period, the animals were sacrificed and autopsied. Organs and tissues were weighed, then examined histopathologically.

[4] = test system: extracellular levels of ACh in hippocampus; assay: ACh release in hippocampus, microdialysis in freely moving rats; type: in vivo
Protocol: ACh content in perfusate obtained from hippocampus (Bregma, A: −5.8 mm, L: 5.0 mm, H: 4.0 mm) of brain were continuously detected by means of HPLC and ECD through the microdialysis system using freely moving rats (See Messamore and Kawashima, supra). After an equilibration period, five fractions were allowed to obtain basal ACh content. Test substances were injected i.p., and thereafter, microdialytic analysis was conducted for 3 hr.

[5] = test system: scopolamine-induced spatial learning deficit; assay: Water maze, scopolamine-induced deficit in spatial learning; type: in vivo, rats; details: p.o. 60 minutes before each trial; Cm.A 1.0 mg/kg/day; scopolamine 0.5 mg/kg i.p.
Protocol: A total of 6 trials (2 trials on 1st day, and 1 trial after 2nd day) were conducted to observe the effects of the test compounds. Scopolamine (0.5 mg/kg, i.p.) and the test compounds (p.o.) were administered 30 and 60 minutes before each trial, respectively.

Cynomologous monkeys [6] = assay: Hepatotoxic analysis, four-week oral study; type: in vivo
Protocol: During the testing period, these animals were dosed with three different regimens: first, animals were dosed with 10 mg/kg/day for 7 days, followed by 32 days-washout period, second, animals were dosed with 5 mg/kg/day for 14 days, and thereafter the animals were dosed with 10 mg/kg/day for 7 days. The following parameters were examined: body weight, clinical signs, food consumption, blood biochemistry (GOT, GPT, ALP, LDH, γ-GTP, ChE, Bil, T.Pro, Alb, A/G ratio, T.Cho, NEFA, TG).

SMILES | IC50 (5-HT3 receptor; read-out: IC50) [nM] | Ki (5-HT3 receptor; read-out: Ki) [nM] | deficit of spatial learning (escape latency) (BF-lesioned rats) | inhibition of 5-HT-evoked B.J.E. (reflex bradycardia) [1] | blood pressure, heart rate and other signs [1] | centrally acting cholinergic symptoms (tremor, chewing and yawning) ([2]; rat, in vivo, ip) | increase of ACh content compared with Cm.A ([2]; striatum, young rats, i.p.) | Clinical signs softstool (Cynomologous monkeys [3]) | Clinical signs vomiting (Cynomologous monkeys [3]) | Food consumption (Cynomologous monkeys [3]) | increase of ACh content compared with Cm.A ([4]; hippocampus, i.p.) | centrally acting cholinergic symptoms (tremor, chewing and yawning) ([4]; rat, in vivo, ip) | deficit in spatial learning (escape latency) [5] | Blood biochemistry (Cynomologous monkeys [6]; F, oral, four weeks) | Clinical signs softstool (Cynomologous monkeys [6]; monkey, in vivo, po) | clinical signs (Cynomologous monkeys [6]; monkey, in vivo, po) | food consumption and body weight (Cynomologous monkeys [6]; monkey, in vivo, po) | blood biochemical tests (Cynomologous monkeys [6]; oral, four weeks)
CN1[C@@H]2CC[C@H]1C[C@@H](OC(=O)c1cc(Cl)cc(Cl)c1)C2 [MDL 72222] | 8.99 | 4.14 |  |  |  |  |  |  |  |  |  |  |  |  |  |  |  | 
COc1cc2c(cc1OC)C(=O)C(CC1CCN(Cc3ccccc3)CC1)C2 (stereo not drawn) [E2020, donepezil] |  |  | also improved this type of deficit | no inhibitory effect on B.J.E. | caused hypertension, salivation and tremor |  |  |  |  |  |  |  |  |  |  |  |  | 
Nc1c2c(nc3ccccc13)CCCC2 [THA, 1,2,3,4-tetrahydro-9-acridinamine, reference compound] |  |  | also improved this type of deficit | slight tendency to decrease the reflex | caused severe hypertension, salivation and tremor | greater severity as compared with Cm.A | increased the ACh content more potently and long-lastingly than Cm.A | − | + | − | somewhat weak | more apparent as compared with Cm.A | no significant effect | ↓: CHE | +++ | severe vomiting and soft stools or diarrhea | decrease in body weight and food consumption | increase in TG and NEFA, decrease in ChE and T.Cho
